Laboratory results as given in the supplement of paper PMC8967900.

Tests used:
Experiment in all cases: selective drug sensitivity score (sDSS, relative to normal bone marrow) (sDSS (score)); higher = more potent and effective on the cell line relative to normal bone marrow cells
Settings in all cases: 72 h
COG-LL-355h = system: COG-LL-355h
MHH-CALL-4 = system: MHH-CALL-4
JURKAT = system: JURKAT
P12-ICHIKAWA = system: P12-ICHIKAWA
MOLT-4 = system: MOLT-4
697 = system: 697
MN-60 = system: MN-60
REH = system: REH
PEER = system: PEER
TANOUE = system: TANOUE
COG-LL-317 = system: COG-LL-317
COG-LL-319h = system: COG-LL-319h
P30-OHKUBO = system: P30-OHKUBO
NALL-1 = system: NALL-1
ALL-PO = system: ALL-PO
MOLT-14 = system: MOLT-14
SUP-B15 = system: SUP-B15
CCRF-HSB2 = system: CCRF-HSB2
MHH-CALL-2 = system: MHH-CALL-2
KARPAS-45 = system: KARPAS-45
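Also: ALL cell lines in 384-well plates, five doses spanning 10,000-fold, each plate scaled between vehicle and 100 µmol/L benzalkonium chloride controls, sDSS an adapted area-under-curve metric.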

Row | Structure (SMILES) | selective drug sensitivity score (COG-LL-355h) | selective drug sensitivity score (MHH-CALL-4) | selective drug sensitivity score (JURKAT) | selective drug sensitivity score (P12-ICHIKAWA) | selective drug sensitivity score (MOLT-4) | selective drug sensitivity score 697 | selective drug sensitivity score (MN-60) | selective drug sensitivity score (REH) | selective drug sensitivity score (PEER) | selective drug sensitivity score (TANOUE) | selective drug sensitivity score (COG-LL-317) | selective drug sensitivity score (COG-LL-319h) | selective drug sensitivity score (P30-OHKUBO) | selective drug sensitivity score (NALL-1) | selective drug sensitivity score (ALL-PO) | selective drug sensitivity score (MOLT-14) | selective drug sensitivity score (SUP-B15) | selective drug sensitivity score (CCRF-HSB2) | selective drug sensitivity score (MHH-CALL-2) | selective drug sensitivity score (KARPAS-45)
1 | COc1cccc2c1C(=O)c1c(O)c3c(c(O)c1C2=O)C[C@@](O)(C(=O)CO)C[C@@H]3O[C@H]1C[C@H](N)[C@@H](O)[C@H](C)O1 [Epirubicin] (top concentration 1000 nM) | 3.22 | 6.92 | 1.02 | 4.62 | 9.92 | 10.1 | -0.98 | 10.5 | -2.98 | -7.88 | 17 | 16.3 | 6.92 | -5.28 | -1.78 | 11.6 | 13.7 | 14.8 | 6.12 | -0.28
2 | Cc1sc2c(c1C)C(c1ccc(Cl)cc1)=N[C@@H](CC(=O)NCCCCNC(=O)COc1cccc3c1C(=O)N(C1CCC(=O)NC1=O)C3=O)c1nnc(C)n1-2 (stereo not given in full) [dBET1] (top concentration 10000 nM) | 6.22 | 5.42 | -11.9 | -11.6 | -9.28 | -0.38 | -8.08 | -1.28 | -4.48 | -17.5 | 2.42 | 3.62 | 2.82 | -11.8 | -5.58 | -1.48 | 0.52 | 2.12 | 4.92 | -7.68
3 | CN(Cc1cnc2nc(N)nc(N)c2n1)c1ccc(C(=O)N[C@@H](CCC(=O)O)C(=O)O)cc1 [Methotrexate] (top concentration 5000 nM) | -0.42 | 9.68 | 13.4 | 15.8 | 11.2 | 0.58 | 14.6 | -0.22 | 14.6 | 15.3 | 9.18 | 20.1 | -0.42 | 12.7 | -0.12 | 10.8 | -0.32 | 14 | 13.8 | 11.5
4 | CON(C)C(=O)N1N=C(c2cc(F)ccc2F)S[C@@]1(CCCN)c1ccccc1 [Filanesib] (top concentration 1000 nM) | 1.7 | 7.4 | 17.7 | 15.9 | 9.3 | 23 | 7.1 | 11.9 | 19.2 | -6.5 | 20.8 | 23.4 | 9.9 | 10.3 | 6.7 | 22.9 | 21.6 | 22.5 | 16.4 | 20.9
5 | CO[C@H]1C[C@@H]2CC[C@@H](C)[C@@](O)(O2)C(=O)C(=O)N2CCCC[C@H]2C(=O)O[C@H]([C@H](C)C[C@@H]2CC[C@@H](OCCO)[C@H](OC)C2)CC(=O)[C@H](C)/C=C(\C)[C@@H](O)[C@@H](OC)C(=O)[C@H](C)C[C@H](C)/C=C/C=C/C=C/1C [Everolimus] (top concentration 100 nM) | 1.5 | -1.5 | -1 | -2.5 | -1.2 | 9.3 | 0.5 | 4 | 3.2 | -5.3 | 2.4 | 10.7 | 2 | -5.3 | 8.9 | -2.2 | 6.1 | 4.8 | 4.2 | 0.2
6 | CN1CCN(C2CCC(n3cc(-c4ccc(Oc5ccccc5)cc4)c4c(N)ncnc43)CC2)CC1 (stereo not given) (top concentration 10000 nM) | -0.08 | 0.52 | 0.62 | 1.12 | 0.82 | 3.32 | 1.32 | 4.12 | 7.02 | -4.68 | 0.82 | 2.42 | 8.52 | 5.52 | 9.52 | 3.42 | 16.1 | 29.1 | 3.12 | 4.12
7 | CC[C@@]1(O)C(=O)OCc2c1cc1n(c2=O)Cc2cc3c(CN(C)C)c(O)ccc3nc2-1 [Topotecan] (top concentration 10000 nM) | 10.9 | 16.5 | 15.2 | 19.2 | 19.9 | 18.9 | 4.28 | 22.2 | 10.1 | -3.62 | 28 | 18.6 | 18.9 | 20.4 | 17.9 | 25.9 | 22.4 | 23.3 | 26.6 | -0.22
8 | CC[C@H](CC#N)OC(=O)N[C@@H](C)c1cccc(NC(=O)Nc2ccc(-c3cnco3)c(OC)c2)c1 [AVN944] (top concentration 10000 nM) | -2.16 | 2.44 | 13.7 | 14.2 | 15.6 | 17.5 | 3.64 | 16.8 | 2.94 | -3.66 | 20.6 | 12.3 | 13.8 | 2.64 | 5.94 | 15.9 | 14.6 | 14.5 | 9.54 | 8.84
9 | COc1ccc(-c2ccc3c(N4CCOC[C@@H]4C)nc(N4CCOC[C@@H]4C)nc3n2)cc1CO [AZD8055] (top concentration 10000 nM) | 6.38 | 2.88 | 4.88 | 6.78 | 7.08 | 16.8 | 7.98 | 12.8 | 6.08 | -3.02 | 4.78 | 5.28 | 16.6 | -3.22 | 10.6 | 1.18 | 11.9 | 10.1 | 6.08 | 4.78
10 | O=c1[nH]c(=O)n([C@H]2C[C@H](O)[C@@H](CO)O2)cc1C(F)(F)F [Trifluridine] (top concentration 10000 nM) | 0.06 | 2.26 | 9.66 | 15.4 | 7.36 | 17.9 | 3.66 | 15.3 | 7.66 | -1.84 | 15.6 | 20.2 | 11.9 | 9.76 | 20 | 15.4 | 15.4 | -1.84 | 9.96 | -1.84
